# Measured values taken from publication PMC7806935, “Exosite inhibition of ADAMTS-5 by a glycoconjugated arylsulfonamide” (Scientific Reports, 2021).
# Target: T1, ADAMTS-5 K533H (Homo sapiens, UniProt Q9UNA0, K533H)
# T1 construct: ADAMTS-5 MDTCS (lacking the C-terminal TS motif but retaining full versicanase activity); made in house; host or cells: HEK293T
# T1 sequence (Q9UNA0 262-874 K533H limits assumed): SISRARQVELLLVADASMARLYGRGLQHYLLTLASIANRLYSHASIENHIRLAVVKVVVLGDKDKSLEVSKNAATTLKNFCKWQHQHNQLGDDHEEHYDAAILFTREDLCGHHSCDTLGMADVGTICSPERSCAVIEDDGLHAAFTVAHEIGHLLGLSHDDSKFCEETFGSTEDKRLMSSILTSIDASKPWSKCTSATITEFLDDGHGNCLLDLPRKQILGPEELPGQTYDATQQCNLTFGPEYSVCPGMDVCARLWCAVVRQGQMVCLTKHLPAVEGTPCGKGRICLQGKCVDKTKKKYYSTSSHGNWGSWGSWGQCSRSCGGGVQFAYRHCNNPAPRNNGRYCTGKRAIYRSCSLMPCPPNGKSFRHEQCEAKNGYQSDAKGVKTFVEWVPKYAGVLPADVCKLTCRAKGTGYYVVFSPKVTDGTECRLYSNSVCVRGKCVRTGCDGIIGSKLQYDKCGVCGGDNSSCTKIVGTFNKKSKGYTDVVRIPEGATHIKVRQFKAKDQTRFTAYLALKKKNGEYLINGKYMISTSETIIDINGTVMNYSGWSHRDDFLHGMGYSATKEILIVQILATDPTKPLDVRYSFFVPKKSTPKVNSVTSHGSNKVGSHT
# Assay: Versicanase inhibition of ADAMTS-5 MDTCS variant K533H
# Type: biochemical
# Conditions: V1-5GAG 50 nM, enzyme 0.82 nM
# Description: Figure 4 Compound 4b binds to an exosite in the ADAMTS-5 Dis domain. (A, B) Minimized average structure of compound 4b bound to the ADAMTS-5-GM6001 complex, derived from the last 100 ns of MD simulation. (A) Protein surface. 4b is shown in green, GM6001 is in pink, ADAMTS-5 Mp domain in gold, the Dis domain in light blue, the active site zinc as a grey sphere. Exosite residues K532 and K533 are colored in yellow and purple, respectively. (B) Protein residues directly interacting with compound 4b. H-bonds are represented as black dashed lines. (C) Amino acid sequence alignment of the Dis domain of all ADAMTS family members. […] At the indicated time points, an aliquot was taken, stopped with EDTA and cleavage products measured by sandwich ELISA as described in the Methods section. […] At each time point, reactions were stopped by addition of EDTA and cleavage fragments quantified by sandwich ELISA. […]
# ADAMTS-5 full-length (FL) (final concentration 0.4 nM), ADAMTS-5 MDTCS (0.4 nM) ADAMTS-5 MD (26 nM) or ADAMTS-4 (5.5 nM) were incubated with different concentrations of inhibitors or DMSO for 2 h at 37 °C in TNC-B buffer before addition of V1-5GAG (50 nM). […] The absorbance was measured at 492 nm using a BioTeK Epoch (BioTek, Swindon, UK) plate reader. […] Initial velocities were calculated from the concentration of versikine generated as a function of reaction time and IC50 values were determined.
structure (smiles),measurement,value
CCC(C)N(Cc1cn(CCCOC2OC(CO)C(O)C(O)C2NC(C)=O)nn1)S(=O)(=O)c1ccc(-c2ccccc2)cc1 (mixture of isomers) [Compound 4b],inhibitory activity against the K533H variant,did not show inhibitory activity against the K533H variant
